The supplement of paper PMC10307832

Tests used:
Assay in all cases: relative viability (nuclei count vs DMSO), 5 days (fraction); higher = more cells survive
Calu-6 = system: Calu-6
How it was run: (§1)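 Lung cancer cell lines were pin-tool dosed in 1536-well plates on the day after seeding, with either a lone drug or a fixed anchor-drug dose plus five library-drug doses (not always all listed) in √10 steps. Nuclei were counted on 4× images after 5 days. Relative viability is the ratio of treated-well to vehicle-well nuclei counts, with each value a median of duplicate plates.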

NCI-H1299 = system: NCI-H1299
How it was run: as §1

A549 = system: A549
How it was run: as §1

EBC-1 = system: EBC-1
How it was run: as §1

NCI-H1703 = system: NCI-H1703
How it was run: as §1

NCI-H1648 = system: NCI-H1648
How it was run: as §1

Compound	relative viability (Calu-6; first compound 0.08 µM)	relative viability (Calu-6; first compound 0.8 µM)	relative viability (Calu-6; first compound 2.53 µM)	relative viability (Calu-6; first compound 8 µM)	relative viability (NCI-H1299; first compound 0.08 µM)	relative viability (NCI-H1299; first compound 0.8 µM)	relative viability (NCI-H1299; first compound 2.53 µM)	relative viability (NCI-H1299; first compound 8 µM)	relative viability (A549; first compound 0.08 µM)	relative viability (A549; first compound 0.8 µM)	relative viability (A549; first compound 2.53 µM)	relative viability (A549; first compound 8 µM)	relative viability (EBC-1; first compound 0.08 µM)	relative viability (EBC-1; first compound 0.8 µM)	relative viability (EBC-1; first compound 2.53 µM)	relative viability (EBC-1; first compound 8 µM)	relative viability (NCI-H1703; first compound 0.08 µM)	relative viability (NCI-H1703; first compound 0.8 µM)	relative viability (NCI-H1703; first compound 2.53 µM)	relative viability (NCI-H1703; first compound 8 µM)	relative viability (NCI-H1648; first compound 0.08 µM)	relative viability (NCI-H1648; first compound 0.8 µM)	relative viability (NCI-H1648; first compound 2.53 µM)	relative viability (NCI-H1648; first compound 8 µM)
CCCCCCCCCCCC1=C(O)C(=O)C=C(O)C1=O [Embelin] + CC1(C)CCC(c2ccc(Cl)cc2)=C(CN2CCN(c3ccc(C(=O)NS(=O)(=O)c4ccc(N[C@H](CCN5CCOCC5)CSc5ccccc5)c(S(=O)(=O)C(F)(F)F)c4)cc3)CC2)C1 [Navitoclax] (partner 0.5 µM)	0.837	1.01	0.904	0.831	1.09	1.1	1.09	1.02	1.21	1.35	1.21	1.3	0.439	0.426	0.425	0.404	1.29	1.26	1.06	1.06	–	–	–	–
CCCCCCCCCCCC1=C(O)C(=O)C=C(O)C1=O [Embelin] + CC(=O)Nc1cccc(-n2c(=O)n(C3CC3)c(=O)c3c(Nc4ccc(I)cc4F)n(C)c(=O)c(C)c32)c1 [Trametinib] (partner 0.02 µM)	–	–	–	–	–	–	–	–	–	–	–	–	–	–	–	–	–	–	–	–	0.53	0.572	0.524	0.596
CCCCCCCCCCCC1=C(O)C(=O)C=C(O)C1=O [Embelin] + CC(=O)c1c(C)c2cnc(Nc3ccc(N4CCNCC4)cn3)nc2n(C2CCCC2)c1=O [Palbociclib] (partner 0.5 µM)	–	–	–	–	–	–	–	–	–	–	–	–	–	–	–	–	–	–	–	–	0.205	0.23	0.241	0.297
CCCCCCCCCCCC1=C(O)C(=O)C=C(O)C1=O [Embelin] + CC(C)C[C@H](NC(=O)[C@H](Cc1ccccc1)NC(=O)c1cnccn1)B(O)O [Bortezomib] (partner 0.002 µM)	1.1	1.03	0.966	1.15	1.06	1.05	1.07	1.03	–	–	–	–	0.485	0.678	0.565	0.545	0.26	0.549	0.361	0.236	–	–	–	–
CCCCCCCCCCCC1=C(O)C(=O)C=C(O)C1=O [Embelin] + COc1cc2c(Oc3ccc(NC(=O)C4(C(=O)Nc5ccc(F)cc5)CC4)cc3F)ccnc2cc1OCCCN1CCOCC1 [Foretinib] (partner 0.25 µM)	0.86	1.01	0.883	1.03	1.08	1.11	1.14	1.13	0.906	1.05	1.09	1.04	0.0948	0.124	0.102	0.103	0.413	0.404	0.392	0.314	–	–	–	–
CCCCCCCCCCCC1=C(O)C(=O)C=C(O)C1=O [Embelin] + COc1cccc2cc(-c3nc([C@H]4CC[C@H](C(=O)O)CC4)n4ncnc(N)c34)[nH]c12 [OSI-027] (partner 0.5 µM)	–	–	–	–	–	–	–	–	–	–	–	–	–	–	–	–	–	–	–	–	0.263	0.293	0.248	0.278
CCCCCCCCCCCC1=C(O)C(=O)C=C(O)C1=O [Embelin] + CS(=O)(=O)CCNCc1ccc(-c2ccc3ncnc(Nc4ccc(OCc5cccc(F)c5)c(Cl)c4)c3c2)o1 [Lapatinib] (partner 2 µM)	1.03	1.11	1.08	1.14	0.943	0.971	0.991	0.967	0.923	1.12	1.12	1.1	0.202	0.247	0.218	0.217	1.2	1.6	1.02	1.23	–	–	–	–
CCCCCCCCCCCC1=C(O)C(=O)C=C(O)C1=O [Embelin] + CS(=O)(=O)N1CCN(Cc2cc3nc(-c4cccc5[nH]ncc45)nc(N4CCOCC4)c3s2)CC1 [Pictilisib] (partner 1 µM)	0.949	1.12	1.1	0.891	0.873	0.832	0.784	0.887	0.554	0.596	0.53	0.527	0.446	0.362	0.446	0.336	0.232	0.315	0.241	0.232	–	–	–	–
CCCCCCCCCCCC1=C(O)C(=O)C=C(O)C1=O [Embelin] + C[C@@H](Oc1cc(-c2cnn(C3CCNCC3)c2)cnc1N)c1c(Cl)ccc(F)c1Cl [Crizotinib] (partner 1 µM)	0.738	0.854	0.822	0.692	0.954	1.02	0.963	0.94	0.834	0.81	0.987	0.915	0.205	0.229	0.191	0.19	0.8	1.17	0.806	0.975	–	–	–	–
CCCCCCCCCCCC1=C(O)C(=O)C=C(O)C1=O [Embelin] + C[C@]1(O)C[C@@H](c2nc(-c3ccc4ccc(-c5ccccc5)nc4c3)c3c(N)nccn32)C1 [Linsitinib] (partner 1 µM)	0.993	1.1	0.981	0.959	0.93	1.04	1.06	0.938	0.546	0.717	0.582	0.456	0.946	1.01	0.998	0.751	0.983	–	0.634	0.599	–	–	–	–
CCCCCCCCCCCC1=C(O)C(=O)C=C(O)C1=O [Embelin] + Cc1cc(Nc2cc(N3CCN(C)CC3)nc(Sc3ccc(NC(=O)C4CC4)cc3)n2)n[nH]1 [Tozasertib] (partner 0.1 µM)	–	–	–	–	–	–	–	–	–	–	–	–	–	–	–	–	–	–	–	–	0.472	0.627	0.366	0.582
CCCCCCCCCCCC1=C(O)C(=O)C=C(O)C1=O [Embelin] + Cc1nc(NC(=O)N2CCC[C@H]2C(N)=O)sc1-c1ccnc(C(C)(C)C(F)(F)F)c1 [Alpelisib] (partner 2 µM)	0.983	0.935	0.978	0.893	1.08	1.07	1.07	1.11	0.901	0.794	0.837	0.728	0.93	1	0.914	0.732	0.428	0.436	0.309	0.238	–	–	–	–
CCCCCCCCCCCC1=C(O)C(=O)C=C(O)C1=O [Embelin] + N=C(N)NC(=N)NCCc1ccccc1 [Phenformin] (partner 250 µM)	–	–	–	–	–	–	–	–	0.204	0.167	0.185	0.0745	–	–	–	–	–	–	–	–	–	–	–	–
CCCCCCCCCCCC1=C(O)C(=O)C=C(O)C1=O [Embelin] + NC(=O)Nc1cc(-c2cccc(F)c2)sc1C(=O)N[C@H]1CCCNC1 [AZD7762] (partner 0.2 µM)	–	–	–	–	–	–	–	–	–	–	–	–	–	–	–	–	0.132	0.166	0.131	0.143	0.598	0.689	0.628	0.709
CCCCCCCCCCCC1=C(O)C(=O)C=C(O)C1=O [Embelin] + Nc1nc2[nH]cc(CCc3ccc(C(=O)N[C@@H](CCC(=O)O)C(=O)O)cc3)c2c(=O)[nH]1 [Pemetrexed] (partner 0.2 µM)	–	–	–	–	–	–	–	–	–	–	–	–	–	–	–	–	–	–	–	–	0.682	0.675	0.776	0.662
CCCCCCCCCCCC1=C(O)C(=O)C=C(O)C1=O [Embelin] + Nc1ncn([C@H]2C[C@H](O)[C@@H](CO)O2)c(=O)n1 [Decitabine] (partner 2 µM)	–	–	–	–	–	–	–	–	0.303	0.252	0.326	0.277	–	–	–	–	–	–	–	–	0.577	0.549	0.548	0.365
CCCCCCCCCCCC1=C(O)C(=O)C=C(O)C1=O [Embelin] + O=C(CCCCCCC(=O)Nc1ccccc1)NO [Vorinostat] (partner 1 µM)	–	–	–	–	–	–	–	–	–	–	–	–	–	–	–	–	–	–	–	–	0.464	0.908	0.487	0.699
CCCCCCCCCCCC1=C(O)C(=O)C=C(O)C1=O [Embelin] + O=C(c1cc(Cc2n[nH]c(=O)c3ccccc23)ccc1F)N1CCN(C(=O)C2CC2)CC1 [Olaparib] (partner 8 µM)	0.589	0.682	0.573	0.655	0.987	1.01	0.994	0.987	0.32	0.187	0.424	0.366	0.699	0.828	0.703	0.684	0.457	0.442	0.388	0.286	1	0.904	1.14	1.21
